This note sets out measurements from ChEMBL document CHEMBL2176967, “Radiofluorinated derivatives of 2-(phosphonomethyl)pentanedioic acid as inhibitors of prostate specific membrane antigen (PSMA) for the imaging of prostate cancer” (J Med Chem, 2012).

Data set [1] addresses T1, Glutamate carboxypeptidase 2 (Homo sapiens, UniProt Q04609). Kind of data set: biochemical.
Description: Inhibition of NAALADase activity in human LNCaP cell membranes assessed as inhibition of [3H]NAG conversion to [3H]glutamate after 30 mins by liquid scintillation counting
In data set [2] the target is T1, Glutamate carboxypeptidase 2. In words: Binding affinity to NAALADase.
The subject of data set [3] is Kidney. In words: Drug level in human LNCaP cells xenografted Balb/c mouse kidney at 10 MBq, iv measured after 45 to 130 mins by PET/CT scanning in presence of unlabelled compound. In kind it is ADME, organism-based. The note with it: in vivo.
Data set [4] is described as follows: Drug level in human LNCaP cells xenografted Balb/c mouse tumor at 10 MBq, iv measured after 45 to 130 mins by PET/CT scanning in presence of unlabelled compound. In kind it is ADME, organism-based, Neoplasm. Particulars: in vivo; call rule not given here.
Data set [5] can be described thus: Drug level in human LNCaP cells xenografted Balb/c mouse gut at 10 MBq, iv measured after 45 to 130 mins by PET/CT scanning. In kind it is ADME, organism-based. The note with it: in vivo.
The test system of another data set is Liver. In words: Drug level in human LNCaP cells xenografted Balb/c mouse liver at 10 MBq, iv measured after 45 to 130 mins by PET/CT scanning. The note with it: in vivo. In kind it is ADME, organism-based.
The test system of another data set is Bone. In words: Drug level in human LNCaP cells xenografted Balb/c mouse bone at 10 MBq, iv measured after 45 to 130 mins by PET/CT scanning. In kind it is ADME, organism-based, Bone element. Particulars: in vivo.
For data set [6], the system named is Kidney. Kind of data set: Drug level in human LNCaP cells xenografted Balb/c mouse kidney at 10 MBq, iv measured after 45 to 130 mins by PET/CT scanning. In kind it is ADME, organism-based. The note with it: in vivo.
In another data set the test system is Urinary bladder. In words: Drug level in human LNCaP cells xenografted Balb/c mouse bladder at 10 MBq, iv measured after 45 to 130 mins by PET/CT scanning. In kind it is ADME, organism-based. The note with it: in vivo.
Data set [7] can be described thus: Drug level in human LNCaP cells xenografted Balb/c mouse tumor at 10 MBq, iv measured after 45 to 130 mins by PET/CT scanning. In kind it is ADME, organism-based, Neoplasm. The note with it: in vivo.

T1 sequence (Q04609 whole entry): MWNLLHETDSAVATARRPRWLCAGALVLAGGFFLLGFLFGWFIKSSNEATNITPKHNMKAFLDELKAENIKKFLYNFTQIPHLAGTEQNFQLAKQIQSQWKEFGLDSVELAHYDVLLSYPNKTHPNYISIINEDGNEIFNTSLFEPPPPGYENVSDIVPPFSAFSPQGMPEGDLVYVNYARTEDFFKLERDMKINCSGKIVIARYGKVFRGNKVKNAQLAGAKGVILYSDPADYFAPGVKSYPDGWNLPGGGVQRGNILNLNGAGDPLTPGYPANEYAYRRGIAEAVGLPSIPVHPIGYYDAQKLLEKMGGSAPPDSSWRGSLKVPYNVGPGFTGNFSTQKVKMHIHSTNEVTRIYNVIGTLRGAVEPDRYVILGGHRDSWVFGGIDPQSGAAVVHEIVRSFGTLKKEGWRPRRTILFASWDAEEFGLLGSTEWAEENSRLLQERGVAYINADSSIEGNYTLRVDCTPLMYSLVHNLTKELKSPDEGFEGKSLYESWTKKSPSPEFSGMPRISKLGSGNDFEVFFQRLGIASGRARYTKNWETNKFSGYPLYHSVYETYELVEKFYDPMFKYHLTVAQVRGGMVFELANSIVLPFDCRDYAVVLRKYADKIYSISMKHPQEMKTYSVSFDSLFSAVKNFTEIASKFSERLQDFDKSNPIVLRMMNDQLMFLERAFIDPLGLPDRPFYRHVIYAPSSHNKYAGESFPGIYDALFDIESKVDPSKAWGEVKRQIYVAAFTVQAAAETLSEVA

In data set [1], `O=C(O)[C@H](C[C@H](F)C(=O)O)CP(=O)(O)O` returned an IC50 of 3.1 nM and a Ki of 1.4 nM.
In turn, `O=C(O)CCCC(CP(=O)(O)O)C(=O)O` (stereo not drawn) yielded an IC50 in [2] of 185 nM.
Turning to `O=C(N[C@@H](C[C@@H](Cc1ccccc1)C(=O)O)C(=O)O)N[C@@H](C[C@@H](Cc1ccccc1)C(=O)O)C(=O)O`, the Ki in data set [2] is 392 nM.
Same read-out and setting: next, `C[C@@H](C[C@H](NC(=O)N[C@@H](C[C@H](C)C(=O)O)C(=O)O)C(=O)O)C(=O)O`: 1110 nM.
In [2], `C[C@H](C[C@H](NC(=O)N[C@@H](C[C@@H](C)C(=O)O)C(=O)O)C(=O)O)C(=O)O` showed an inhibition constant (Ki) of 1280 nM.
For the compound `O=C(O)[C@@H](C[C@@H](F)C(=O)O)CP(=O)(O)O`, in [1], 89.4 nM corresponded to half-maximal inhibition (IC50) and the Ki turned out to be 36.4 nM.
In data set [2], `O=C(O)CC[C@H](NC(=O)N[C@@H](CCC(=O)O)C(=O)O)C(=O)O` registered a Ki of 8 nM.
Turning to `O=C(O)C([18F])CC(CP(=O)(O)O)C(=O)O` (racemic), the Drug uptake result in the data set on Kidney [3] was “Not Active”; in data set [4], “Not Active”; in data set [5], “Not Active”; in the data set on Liver, “Not Active”; with Bone it was “Active”; in the data set with Kidney [6], “Active”. Further, the Drug uptake entry (in the data set on Urinary bladder; in [7]) was “Active” each time.
In data set [1], `O=C(O)[C@H](C[C@@H](F)C(=O)O)CP(=O)(O)O` came in with an IC50 of 8.1 nM and a Ki of 3.1 nM.
In data set [1], `O=C(O)[C@@H](C[C@H](F)C(=O)O)CP(=O)(O)O` showed an IC50 of 55.9 nM and a Ki of 22 nM.
On the same counts, the results for `O=C(O)C(F)CC(CP(=O)(O)O)C(=O)O` (racemic) are 6.8 nM and 2.6 nM.
